Experiment [1] concerns the target T1, Recombinant human integrin αVβ5 (Homo sapiens, UniProt P06756+P18084).
T1 construct: purchased R&D Systems 2528-AV
Briefly: Solid Phase Receptor Assay (SPRA) for αVβ5 function. The settings on record: plate-bound human vitronectin. It counts as binding. Here is the method: D. Solid Phase Receptor Assay (SPRA) for αVβ5 Function
Wells were washed 3 times with 150 μL TBS+ and then 150 μL of blocking buffer (TBS+ with 1% bovine serum albumin, Sigma A7906) was added. The plate was incubated for 1 hr at 37° C. and then washed 3× with TBS+ buffer. […] Compounds were diluted to 20 μM and then 1 μL was added to each well of the plate according to a standard template with each sample repeated in triplicate. After incubation for two hours at room temperature, the plate was washed 3× with 150 μL of TBS+ buffer. To each well, 50 μl of biotinylated anti-αV antibody (R&D Systems, BAF1219) at 0.5 μg/mL in TBS+/0.1% BSA at 0.5 μg/mL were added and the plate covered and incubated for 1 hr at room temperature. After washing the plate 3× with 150 μL of TBS+ buffer, 50 μL of streptavidin-conjugated horseradish peroxidase (R&D Systems, DY998) diluted in TBS+ blocking buffer were added to the wells and the plate incubated for 20 min at room temperature. The plate was washed 3× with TBS+ buffer followed by 50 μL of TMB substrate (Sigma T4444) added to each well in the dark and the plate incubated for 5 min at room temperature. 25 μL of 1.0 M phosphoric acid was added as a stop solution and the plates were read at 450 nm using a Spectramax plate reader.

Experiment [2] addresses T2, Recombinant human integrin αVβ3 (Homo sapiens, UniProt P05106+P06756).
T2 construct: purchased R&D Systems 3050-AV
The experiment in a line: Solid Phase Receptor Assay for αVβ3 function. To be noted: plate-bound human vitronectin; read-out: αVβ3 SPRA IC50. It counts as binding. Here is the method:
C. […] Wells were washed 3 times with 150 μL TBS+ and then 150 μL of blocking buffer (TBS+ with 1% bovine serum albumin, Sigma A7906) was added. The plate was incubated for 1 hr at 37° C. and then washed 3× with TBS+ buffer. […] Compounds were diluted to 20 μM and then 1 μL was added to each well of the plate according to a standard template with each sample repeated in triplicate. After incubation for two hours at room temperature, the plate was washed 3× with 150 μL of TBS+ buffer. To each well, 50 μL of biotinylated anti-αV antibody (R&D Systems, BAF1219) at 0.5 μg/mL in TBS+/0.1% BSA were added and the plate covered and incubated for 1 hr at room temperature. After washing the plate 3× with 150 μL of TBS+ buffer, 50 μL of streptavidin-conjugated horseradish peroxidase (R&D Systems, DY998) diluted in TBS+ blocking buffer were added to the wells and the plate incubated for 20 min at room temperature. The plate was washed 3× with TBS+ buffer followed by 50 μL of TMB substrate (Sigma, T4444) added to each well in the dark and the plate was incubated for 25 min at room temperature. 25 μL of 1.0 M phosphoric acid was added as a stop solution and the plates were read at 450 nm using a Spectramax plate reader.

Here are results for 21 compounds from patent US20210284638A1 (Saint Louis University, priority 2018, published 2021).

T2 sequence (P06756 31-992 limits assumed): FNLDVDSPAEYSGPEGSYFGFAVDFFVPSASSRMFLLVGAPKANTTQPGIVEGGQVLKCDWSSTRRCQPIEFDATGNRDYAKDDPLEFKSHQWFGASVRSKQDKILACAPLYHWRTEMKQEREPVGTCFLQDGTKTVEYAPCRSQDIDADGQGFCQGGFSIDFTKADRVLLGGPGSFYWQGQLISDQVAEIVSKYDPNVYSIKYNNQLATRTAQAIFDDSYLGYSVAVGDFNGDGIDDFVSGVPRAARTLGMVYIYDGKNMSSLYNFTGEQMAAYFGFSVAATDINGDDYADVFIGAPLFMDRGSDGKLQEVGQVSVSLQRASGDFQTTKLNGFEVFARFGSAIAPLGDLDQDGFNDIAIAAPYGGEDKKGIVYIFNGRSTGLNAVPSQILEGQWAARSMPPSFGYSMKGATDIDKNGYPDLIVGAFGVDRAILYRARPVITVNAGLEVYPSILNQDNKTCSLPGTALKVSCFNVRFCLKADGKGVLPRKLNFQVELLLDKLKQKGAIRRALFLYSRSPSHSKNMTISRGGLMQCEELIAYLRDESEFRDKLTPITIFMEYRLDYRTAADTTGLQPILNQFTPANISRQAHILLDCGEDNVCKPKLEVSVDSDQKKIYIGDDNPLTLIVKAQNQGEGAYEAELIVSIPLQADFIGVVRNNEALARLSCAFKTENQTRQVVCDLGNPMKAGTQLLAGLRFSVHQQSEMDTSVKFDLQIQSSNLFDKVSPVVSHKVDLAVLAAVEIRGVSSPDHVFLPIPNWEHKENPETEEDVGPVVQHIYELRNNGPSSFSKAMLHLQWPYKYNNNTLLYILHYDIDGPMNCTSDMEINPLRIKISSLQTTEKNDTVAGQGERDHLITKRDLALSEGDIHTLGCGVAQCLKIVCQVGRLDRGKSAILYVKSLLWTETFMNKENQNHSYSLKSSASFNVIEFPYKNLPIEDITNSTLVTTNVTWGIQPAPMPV
T2 sequence (P05106 27-718 limits assumed): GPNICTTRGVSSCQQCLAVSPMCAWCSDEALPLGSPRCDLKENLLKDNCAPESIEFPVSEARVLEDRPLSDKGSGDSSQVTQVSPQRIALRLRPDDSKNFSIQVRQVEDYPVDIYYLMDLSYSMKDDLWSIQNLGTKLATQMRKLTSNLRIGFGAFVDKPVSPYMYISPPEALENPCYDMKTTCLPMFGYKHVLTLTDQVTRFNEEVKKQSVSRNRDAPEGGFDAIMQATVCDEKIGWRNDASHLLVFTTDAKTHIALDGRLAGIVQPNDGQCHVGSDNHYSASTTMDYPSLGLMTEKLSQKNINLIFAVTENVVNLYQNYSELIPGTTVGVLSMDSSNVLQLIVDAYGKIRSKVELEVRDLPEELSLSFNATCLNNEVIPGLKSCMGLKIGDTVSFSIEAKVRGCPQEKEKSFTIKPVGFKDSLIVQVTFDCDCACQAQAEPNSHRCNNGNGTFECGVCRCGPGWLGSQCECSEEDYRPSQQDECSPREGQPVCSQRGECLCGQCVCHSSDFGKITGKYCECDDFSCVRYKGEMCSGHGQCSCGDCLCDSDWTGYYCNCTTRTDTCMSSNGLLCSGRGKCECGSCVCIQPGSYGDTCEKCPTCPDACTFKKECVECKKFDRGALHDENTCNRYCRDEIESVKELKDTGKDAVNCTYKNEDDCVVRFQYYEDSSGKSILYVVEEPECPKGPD
T1 sequence (P06756 31-992 limits assumed): as the sequence (P06756 31-992 limits assumed) above
T1 sequence (P18084 24-719 limits assumed): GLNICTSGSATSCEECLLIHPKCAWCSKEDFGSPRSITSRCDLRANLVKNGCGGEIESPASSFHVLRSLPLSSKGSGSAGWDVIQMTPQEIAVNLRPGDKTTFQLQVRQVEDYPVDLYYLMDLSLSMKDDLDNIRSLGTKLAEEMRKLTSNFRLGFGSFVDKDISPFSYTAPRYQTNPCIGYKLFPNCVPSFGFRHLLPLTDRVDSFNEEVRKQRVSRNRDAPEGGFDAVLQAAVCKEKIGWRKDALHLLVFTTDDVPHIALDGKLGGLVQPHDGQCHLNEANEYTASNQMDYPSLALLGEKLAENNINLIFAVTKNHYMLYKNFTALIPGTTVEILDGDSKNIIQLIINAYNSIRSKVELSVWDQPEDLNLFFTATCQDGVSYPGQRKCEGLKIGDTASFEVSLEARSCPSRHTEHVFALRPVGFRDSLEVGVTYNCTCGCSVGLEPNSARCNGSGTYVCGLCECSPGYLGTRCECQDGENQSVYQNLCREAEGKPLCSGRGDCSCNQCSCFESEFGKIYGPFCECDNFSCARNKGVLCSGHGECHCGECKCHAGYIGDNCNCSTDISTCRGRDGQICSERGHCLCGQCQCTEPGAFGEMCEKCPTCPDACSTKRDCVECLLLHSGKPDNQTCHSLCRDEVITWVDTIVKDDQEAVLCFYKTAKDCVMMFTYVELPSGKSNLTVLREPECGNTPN

Consider `O=C(O)CC(Cc1cc(OCCc2ccc3c(n2)NCCC3)[nH]n1)c1cccc(F)c1` (stereo not drawn) [CC2, reference compound], for which the IC50 in experiment [1] is 0.2 nM; in experiment [2], 3.1 nM.
Consider `COCC1(c2cc(C(CC(=O)O)Cc3cc(OCCc4ccc5c(n4)NCCC5)n(C)n3)cc(C(C)(C)C)c2)CCOCC1` (stereo not drawn) [Example 1, 3-[3-tert-butyl-5-[4-(methoxymethyl)tetrahydropyran-4-yl]phenyl]-4-[1-methyl-5-[2-(5,6,7,8-tetrahydro-1,8-naphthyridin-2-yl)ethoxy]pyrazol-3-yl]butanoic acid], for which the IC50 in experiment [1] amounted to 44 nM; in experiment [2] it was 48 nM.
Turning to `CC(C)c1cc(C#N)cc(C(CC(=O)O)Cc2cc(OCCc3ccc4c(n3)NCCC4)n(C)n2)c1` (stereo not drawn) [Example 2, 3-(3-cyano-5-isopropylphenyl)-4-(1-methyl-5-(2-(5,6,7,8-tetrahydro-1,8-naphthyridin-2-yl)ethoxy)-1H-pyrazol-3-yl)butanoic acid trifluoroacetic acid], the IC50 in experiment [1] was 0.3 nM; in experiment [2] it was 6 nM.
In the same order, the values of `Cn1nc(CC(CC(=O)O)c2cc(Br)cc(S(F)(F)(F)(F)F)c2)cc1OCCc1ccc2c(n1)NCCC2` (stereo not drawn) [Example 3, 3-[3-bromo-5-(pentafluoro-sulfanyl)phenyl]-4-[1-methyl-5-[2-(5,6,7,8-tetrahydro-1,8-naphthyridin-2-yl)ethoxy]pyrazol-3-yl]butanoic acid] are 2 nM and 8 nM.
As to `CC(C)c1cc(C(C)C)cc(C(CC(=O)O)Cc2cc(OCCc3ccc4c(n3)NCCC4)n(C)n2)c1` (stereo not drawn) [Example 4, 3-(3,5-diisopropylphenyl)-4-[1-methyl-5-[2-(5,6,7,8-tetrahydro-1,8-naphthyridin-2-yl)ethoxy]pyrazol-3-yl]butanoic acid], the values for the IC50 in experiment [1] and in experiment [2] were 6 nM and 15 nM, respectively.
On to `Cn1nc(CC(CC(=O)O)c2cc(C(C)(C)C)cc(C(C)(C)C(F)(F)F)c2)cc1OCCc1ccc2c(n1)NCCC2` (stereo not drawn) [Example 5, 3-(3-(tert-butyl)-5-(1,1,1-trifluoro-2-methylpropan-2-yl)phenyl)-4-(1-methyl-5-(2-(5,6,7,8-tetrahydro-1,8-naphthyridin-2-yl)ethoxy)-1H-pyrazol-3-yl) butanoic acid], for which the IC50 in experiment [1] is 160 nM; in experiment [2] it was 140 nM.
In the same order, the values of `Cn1nc(CC(CC(=O)O)c2cc(C(C)(C)C)cc(C3(C(F)F)CC3)c2)cc1OCCc1ccc2c(n1)NCCC2` (stereo not drawn) [Example 6, 3-(3-(tert-butyl)-5-(1-(difluoromethyl)cyclopropyl)phenyl)-4-(1-methyl-5-(2-(5,6,7,8-tetrahydro-1,8-naphthyridin-2-yl)ethoxy)-1H-pyrazol-3-yl)butanoic acid] are 54 nM and 120 nM.
In the case of `Cn1nc(CC(CC(=O)O)c2cc(C(C)(C)C)cc(C(C)(C)CO)c2)cc1OCCc1ccc2c(n1)NCCC2` (stereo not drawn) [Example 7, 3-[3-tert-butyl-5-(2-hydroxy-1,1-dimethyl-ethyl)phenyl]-4-[1-methyl-5-[2-(5,6,7,8-tetrahydro-1,8-naphthyridin-2-yl)ethoxy]pyrazol-3-yl]butanoic acid], the IC50 was found to be 27 nM in experiment [1] and 17 nM in experiment [2].
On the same counts, the results for `Cn1nc(CC(CC(=O)O)c2cc(Cl)cc(C(C)(C)C#N)c2)cc1OCCc1ccc2c(n1)NCCC2` (stereo not drawn) [Example 8, 3-(3-chloro-5-(2-cyanopropan-2-yl)phenyl)-4-(1-methyl-5-(2-(5,6,7,8-tetrahydro-1,8-naphthyridin-2-yl)ethoxy)-1H-pyrazol-3-yl)butanoic acid] are 0.3 nM and 3 nM.
For the compound `Cn1nc(CC(CC(=O)O)c2cc(C(C)(C)C)cc(C(C)(C)C#N)c2)cc1OCCc1ccc2c(n1)NCCC2` (stereo not drawn) [Example 9, 3-[3-tert-butyl-5-(1-cyano-1-methyl-ethyl)phenyl]-4-[1-methyl-5-[2-(5,6,7,8-tetrahydro-1,8-naphthyridin-2-yl)ethoxy]pyrazol-3-yl]butanoic acid], the IC50 stood at 32 nM in experiment [1] and 38 nM in experiment [2].
On the same counts, the results for `COc1c(C(C)(C)C)cc(C(CC(=O)O)Cc2cc(OCCc3ccc4c(n3)NCCC4)n(C)n2)cc1C(C)(C)C` (stereo not drawn) [Example 10, 3-(3,5-di-tert-butyl-4-methoxyphenyl)-4-(1-methyl-5-(2-(5,6,7,8-tetrahydro-1,8-naphthyridin-2-yl)ethoxy)-1H-pyrazol-3-yl)butanoic acid] are 84 nM and 410 nM.
Consider `COc1c(C(CC(=O)O)Cc2cc(OCCc3ccc4c(n3)NCCC4)n(C)n2)cc(C(C)(C)C)cc1C(C)(C)C` (stereo not drawn) [Example 11, 3-(3,5-di-tert-butyl-2-methoxyphenyl)-4-(1-methyl-5-(2-(5,6,7,8-tetrahydro-1,8-naphthyridin-2-yl)ethoxy)-1H-pyrazol-3-yl)butanoic acid], for which the IC50 came out at 17000 nM in experiment [1] and 13000 nM in experiment [2].
In the same order, the values of `COc1c(Br)cc(C(C)(C)C)cc1C(CC(=O)O)Cc1cc(OCCc2ccc3c(n2)NCCC3)n(C)n1` (stereo not drawn) [Example 12, 3-(3-bromo-5-(tert-butyl)-2-methoxyphenyl)-4-(1-methyl-5-(2-(5,6,7,8-tetrahydro-1,8-naphthyridin-2-yl)ethoxy)-1H-pyrazol-3-yl)butanoic acid] are 160 nM and 90 nM.
In the same order, the values of `COc1cc(C(CC(=O)O)Cc2cc(OCCc3ccc4c(n3)NCCC4)n(C)n2)cc(C23CC4CC(CC(C4)C2)C3)c1OCc1ccccc1` (stereo not drawn) [Example 13, 3-[3-(1-adamantyl)-4-benzyloxy-5-methoxy-phenyl]-4-[1-methyl-5-[2-(5,6,7,8-tetrahydro-1,8-naphthyridin-2-yl)ethoxy]pyrazol-3-yl]butanoic acid] are 140 nM and 31 nM.
Turning to `COc1cc(C(CC(=O)O)Cc2cc(OCCc3ccc4c(n3)NCCC4)n(C)n2)cc(C23CC4CC(CC(C4)C2)C3)c1OC` (stereo not drawn) [Example 14, 3-[3-(1-adamantyl)-4,5-dimethoxy-phenyl]-4-[1-methyl-5-[2-(5,6,7,8-tetrahydro-1,8-naphthyridin-2-yl)ethoxy]pyrazol-3-yl]butanoic acid], the IC50 in experiment [1] and in experiment [2] was 9 nM throughout.
Take `Cn1nc(CC(CC(=O)O)c2cc3c(c(C(C)(C)C)c2)OCO3)cc1OCCc1ccc2c(n1)NCCC2` (stereo not drawn) [Example 15]: the IC50 in experiment [1] was 0.2 nM; in experiment [2] it was 9 nM.
On to `Cn1nc(CC(CC(=O)O)c2cc3c(c(C(C)(C)C)c2)OCCO3)cc1OCCc1ccc2c(n1)NCCC2` (stereo not drawn) [Example 16, 3-(8-(tert-butyl)-2,3-dihydrobenzo[b][1,4]dioxin-6-yl)-4-(1-methyl −5-(2-(5,6,7,8-tetrahydro-1,8-naphthyridin-2-yl)ethoxy)-1H-pyrazol-3-yl) butanoic acid], for which the IC50 in experiment [1] stood at 0.7 nM; in experiment [2], 7 nM.
Consider `Cn1nc(CC(CC(=O)O)c2cc(C(C)(C)C)ccc2Br)cc1OCCc1ccc2c(n1)NCCC2` (stereo not drawn) [Example 17, 3-(2-bromo-5-(tert-butyl)phenyl)-4-(1-methyl-5-(2-(5,6,7,8-tetrahydro-1,8-naphthyridin-2-yl)ethoxy)-1H-pyrazol-3-yl)butanoic acid], for which the IC50 is 230 nM in experiment [1] and 930 nM in experiment [2].
On the same counts, the results for `Cn1nc(CC(CC(=O)O)c2cc(C(C)(C)C)ccc2C#N)cc1OCCc1ccc2c(n1)NCCC2` (stereo not drawn) [Example 18, 3-(5-(tert-butyl)-2-cyanophenyl)-4-(1-methyl-5-(2-(5,6,7,8-tetrahydro-1,8-naphthyridin-2-yl)ethoxy)-1H-pyrazol-3-yl)butanoic acid] are 4 nM and 56 nM.
In the case of `Cn1nc(CC(CC(=O)O)c2cc(C(C)(C)C)ccc2F)cc1OCCc1ccc2c(n1)NCCC2` (stereo not drawn) [Example 19, 3-(5-(tert-butyl)-2-fluorophenyl)-4-(1-methyl-5-(2-(5,6,7,8-tetrahydro-1,8-naphthyridin-2-yl)ethoxy)-1H-pyrazol-3-yl)butanoic acid], the half-maximal inhibitory concentration (IC50) amounted to 0.6 nM in experiment [1] and 6 nM in experiment [2].
On the same counts, the results for `Cn1nc(CC(CC(=O)O)c2cc(C(C)(C)C)ccc2OC(F)(F)F)cc1OCCc1ccc2c(n1)NCCC2` (stereo not drawn) [Example 20, 3-(5-(tert-butyl)-2-(trifluoromethoxy)phenyl)-4-(1-methyl-5-(2-(5,6,7,8-tetrahydro-1,8-naphthyridin-2-yl)ethoxy)-1H-pyrazol-3-yl)butanoic acid] are 590 nM and 880 nM.
